# Test results reported in publication PMC4503722, “Novel Phenotypic Outcomes Identified for a Public Collection of Approved Drugs from a Publicly Accessible Panel of Assays” (PLoS ONE, 2015).
# Columns and labels:
# SNU-C1 = assay: cells; format: cell-based; settings: assay number 30
# hJAK2 = target: T1, hJAK2 (Homo sapiens, UniProt O60674); assay: Cerep LANCE kinase assay hJAK2 (S1 assay 33); format: biochemical; settings: assay number 33
# T1 construct: purchased Cerep (LANCE kinase assay platform, contract assay)
# [1] = system: endothelial tube formation in co-cultures of ECFCs and ADSCs treated with VEGF; assay: cells; format: cell-based, human
# RKO = assay: cells; format: cell-based; settings: assay number 29
# HeLa cells = assay: cells; format: cell-based; settings: for Hela CellCycMod PI 2N IC50/EC50: assay number 14; for Hela CellCycMod PI S Phase IC50/EC50: assay number 15; for Hela CellCycMod PI 4N IC50/EC50: assay number 16; for Hela CellCycMod PI MI IC50/EC50: assay number 17; for Hela CellCycMod PI Cell Number IC50/EC50: assay number 18
# HCT116 = assay: cells; format: cell-based; settings: assay number 25; basal
# hp70S6K1 (RPS6KB1) = target: T2, hp70S6K1 (RPS6KB1) (Homo sapiens, UniProt P23443); assay: Cerep LANCE kinase assay hp70S6K1 (S1 assay 31); format: biochemical; settings: assay number 31
# T2 construct: purchased Cerep (LANCE kinase assay platform, contract assay)
# [2] = system: ECFC/ADSC co-culture cell nuclei number
# SW480 = assay: cells; format: cell-based; settings: assay number 24
# [3] = system: nuclear β-catenin in C2C12 cells; assay: cells; format: cell-based; settings: assay number 5; concentration response
# [4] = system: HCT116 cells treated with a GSK3β inhibitor; assay: cells; format: cell-based; settings: assay number 26; GSK3b inhibitor pretreated
# hKDR = target: T3, hKDR (Homo sapiens, UniProt P35968); assay: Cerep LANCE kinase assay hKDR (S1 assay 32); format: biochemical; settings: assay number 32
# T3 construct: purchased Cerep (LANCE kinase assay platform, contract assay)
# HT-29 = assay: cells; format: cell-based; settings: assay number 28
# [5] = system: alkaline phosphatase (ALP) activity in C2C12 cells; format: cell-based; settings: assay number 6; concentration response
# hFLT3 = target: T4, hFLT3 (Homo sapiens, UniProt P36888); assay: Cerep LANCE kinase assay hFLT3 (S1 assay 35); format: biochemical; settings: assay number 35
# T4 construct: purchased Cerep (LANCE kinase assay platform, contract assay)
# Colo320 = assay: cells; format: cell-based; settings: assay number 27
# hGSK3b = target: T5, hGSK3b (Homo sapiens, UniProt P49841); assay: Cerep LANCE kinase assay hGSK3b (S1 assay 34); format: biochemical; settings: assay number 34
# T5 construct: purchased Cerep (LANCE kinase assay platform, contract assay)
# DLD-1 = assay: cells; format: cell-based; settings: assay number 23
# T1 sequence (O60674 whole entry): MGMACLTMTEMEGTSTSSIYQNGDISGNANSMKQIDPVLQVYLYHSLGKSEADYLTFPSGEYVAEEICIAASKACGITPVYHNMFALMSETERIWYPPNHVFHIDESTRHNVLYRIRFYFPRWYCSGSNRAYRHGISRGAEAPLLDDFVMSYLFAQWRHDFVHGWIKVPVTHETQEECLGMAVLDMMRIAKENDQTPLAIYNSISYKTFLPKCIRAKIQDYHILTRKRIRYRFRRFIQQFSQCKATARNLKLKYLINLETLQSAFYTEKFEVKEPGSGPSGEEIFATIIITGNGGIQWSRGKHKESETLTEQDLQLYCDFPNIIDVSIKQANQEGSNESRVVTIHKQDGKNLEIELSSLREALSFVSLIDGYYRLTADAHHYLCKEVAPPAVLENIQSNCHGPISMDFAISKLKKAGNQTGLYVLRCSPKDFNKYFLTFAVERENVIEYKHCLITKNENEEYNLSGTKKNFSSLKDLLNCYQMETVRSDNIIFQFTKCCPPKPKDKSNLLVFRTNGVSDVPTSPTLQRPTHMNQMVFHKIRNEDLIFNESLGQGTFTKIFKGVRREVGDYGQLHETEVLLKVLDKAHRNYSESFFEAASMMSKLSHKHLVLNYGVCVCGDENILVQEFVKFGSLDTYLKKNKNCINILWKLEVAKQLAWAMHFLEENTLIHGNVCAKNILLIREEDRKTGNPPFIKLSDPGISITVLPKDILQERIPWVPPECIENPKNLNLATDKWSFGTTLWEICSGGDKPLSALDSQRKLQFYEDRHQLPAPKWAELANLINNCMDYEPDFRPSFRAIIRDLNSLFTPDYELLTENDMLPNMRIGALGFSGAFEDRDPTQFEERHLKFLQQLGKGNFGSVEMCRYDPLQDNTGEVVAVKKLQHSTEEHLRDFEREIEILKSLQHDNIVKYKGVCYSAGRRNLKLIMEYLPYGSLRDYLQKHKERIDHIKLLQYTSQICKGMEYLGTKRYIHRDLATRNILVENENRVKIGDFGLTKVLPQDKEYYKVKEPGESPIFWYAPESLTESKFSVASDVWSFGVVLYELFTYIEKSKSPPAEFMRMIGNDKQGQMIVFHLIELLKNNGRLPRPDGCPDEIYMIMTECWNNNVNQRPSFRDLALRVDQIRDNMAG
# T4 sequence (P36888 27-993): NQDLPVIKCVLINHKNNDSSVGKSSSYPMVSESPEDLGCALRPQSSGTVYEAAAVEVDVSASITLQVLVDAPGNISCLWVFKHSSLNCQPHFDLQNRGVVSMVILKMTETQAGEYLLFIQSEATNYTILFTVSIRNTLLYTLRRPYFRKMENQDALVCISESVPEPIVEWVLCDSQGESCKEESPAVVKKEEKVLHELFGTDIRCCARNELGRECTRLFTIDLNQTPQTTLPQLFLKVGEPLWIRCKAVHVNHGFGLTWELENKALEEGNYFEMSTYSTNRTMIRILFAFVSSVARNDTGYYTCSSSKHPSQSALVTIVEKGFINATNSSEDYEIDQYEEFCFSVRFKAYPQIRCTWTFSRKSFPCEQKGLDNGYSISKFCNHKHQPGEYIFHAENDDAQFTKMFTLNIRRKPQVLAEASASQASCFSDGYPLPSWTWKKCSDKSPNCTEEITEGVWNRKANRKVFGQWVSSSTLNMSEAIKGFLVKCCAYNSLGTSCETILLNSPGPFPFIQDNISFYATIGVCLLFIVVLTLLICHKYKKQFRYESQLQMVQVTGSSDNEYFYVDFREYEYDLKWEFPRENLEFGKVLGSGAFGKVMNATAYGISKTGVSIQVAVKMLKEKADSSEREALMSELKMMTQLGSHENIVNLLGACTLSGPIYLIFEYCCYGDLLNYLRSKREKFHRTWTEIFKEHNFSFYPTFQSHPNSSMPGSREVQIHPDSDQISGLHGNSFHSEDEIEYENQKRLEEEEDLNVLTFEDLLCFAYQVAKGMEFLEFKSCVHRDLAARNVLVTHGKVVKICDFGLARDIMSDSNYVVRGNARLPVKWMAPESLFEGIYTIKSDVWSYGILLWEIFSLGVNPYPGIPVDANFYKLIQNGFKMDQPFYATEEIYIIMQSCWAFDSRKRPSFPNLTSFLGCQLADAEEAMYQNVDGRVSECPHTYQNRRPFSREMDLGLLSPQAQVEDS
# T2 sequence (P23443 whole entry): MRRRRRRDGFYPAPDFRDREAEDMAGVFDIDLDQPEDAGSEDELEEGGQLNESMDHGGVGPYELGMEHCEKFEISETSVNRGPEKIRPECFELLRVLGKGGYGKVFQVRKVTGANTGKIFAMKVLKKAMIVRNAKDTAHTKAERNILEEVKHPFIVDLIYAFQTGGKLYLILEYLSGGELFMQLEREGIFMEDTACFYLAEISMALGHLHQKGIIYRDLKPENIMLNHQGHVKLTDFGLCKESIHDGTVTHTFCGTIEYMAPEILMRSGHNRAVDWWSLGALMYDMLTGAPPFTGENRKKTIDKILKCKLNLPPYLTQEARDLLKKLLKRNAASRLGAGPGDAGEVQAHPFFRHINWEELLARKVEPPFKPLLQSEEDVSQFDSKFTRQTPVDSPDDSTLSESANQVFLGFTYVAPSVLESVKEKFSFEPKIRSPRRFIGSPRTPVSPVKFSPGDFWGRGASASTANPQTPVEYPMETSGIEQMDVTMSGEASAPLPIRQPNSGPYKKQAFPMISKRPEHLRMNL
# T3 sequence (P35968 20-1356): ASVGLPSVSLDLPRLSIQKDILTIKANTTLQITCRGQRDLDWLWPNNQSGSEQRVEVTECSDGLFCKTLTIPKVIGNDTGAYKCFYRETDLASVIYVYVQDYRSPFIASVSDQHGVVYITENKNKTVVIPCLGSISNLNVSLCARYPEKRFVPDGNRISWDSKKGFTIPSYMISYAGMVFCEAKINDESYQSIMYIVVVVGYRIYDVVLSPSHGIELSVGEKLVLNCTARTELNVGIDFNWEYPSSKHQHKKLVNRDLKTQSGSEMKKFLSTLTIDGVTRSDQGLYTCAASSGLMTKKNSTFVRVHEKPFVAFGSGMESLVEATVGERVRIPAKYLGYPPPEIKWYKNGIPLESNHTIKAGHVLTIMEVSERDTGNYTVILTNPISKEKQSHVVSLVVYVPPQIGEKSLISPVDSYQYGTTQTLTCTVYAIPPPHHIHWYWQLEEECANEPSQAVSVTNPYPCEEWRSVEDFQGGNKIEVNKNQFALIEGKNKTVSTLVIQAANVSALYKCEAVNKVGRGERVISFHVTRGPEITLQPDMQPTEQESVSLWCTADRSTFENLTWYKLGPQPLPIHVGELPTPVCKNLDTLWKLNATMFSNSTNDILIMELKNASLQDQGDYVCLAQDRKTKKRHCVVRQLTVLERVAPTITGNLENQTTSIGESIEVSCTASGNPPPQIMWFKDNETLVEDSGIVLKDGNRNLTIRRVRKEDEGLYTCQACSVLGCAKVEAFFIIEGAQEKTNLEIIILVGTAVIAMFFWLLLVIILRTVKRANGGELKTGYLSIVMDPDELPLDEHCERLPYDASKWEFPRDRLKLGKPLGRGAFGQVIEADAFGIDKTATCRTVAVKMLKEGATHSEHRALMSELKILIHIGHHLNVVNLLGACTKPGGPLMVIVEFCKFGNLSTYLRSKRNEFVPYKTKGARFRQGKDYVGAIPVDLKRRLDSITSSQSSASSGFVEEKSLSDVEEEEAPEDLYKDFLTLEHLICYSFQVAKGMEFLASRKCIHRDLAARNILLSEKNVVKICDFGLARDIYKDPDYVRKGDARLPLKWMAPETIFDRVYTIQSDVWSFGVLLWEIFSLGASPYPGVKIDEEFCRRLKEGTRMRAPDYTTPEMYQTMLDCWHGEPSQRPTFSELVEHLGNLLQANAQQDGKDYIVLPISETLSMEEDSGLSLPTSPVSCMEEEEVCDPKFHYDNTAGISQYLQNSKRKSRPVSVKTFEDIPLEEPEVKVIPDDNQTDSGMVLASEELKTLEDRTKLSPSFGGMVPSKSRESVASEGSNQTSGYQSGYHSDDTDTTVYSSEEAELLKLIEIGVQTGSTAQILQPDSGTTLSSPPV
# T5 sequence (P49841 whole entry): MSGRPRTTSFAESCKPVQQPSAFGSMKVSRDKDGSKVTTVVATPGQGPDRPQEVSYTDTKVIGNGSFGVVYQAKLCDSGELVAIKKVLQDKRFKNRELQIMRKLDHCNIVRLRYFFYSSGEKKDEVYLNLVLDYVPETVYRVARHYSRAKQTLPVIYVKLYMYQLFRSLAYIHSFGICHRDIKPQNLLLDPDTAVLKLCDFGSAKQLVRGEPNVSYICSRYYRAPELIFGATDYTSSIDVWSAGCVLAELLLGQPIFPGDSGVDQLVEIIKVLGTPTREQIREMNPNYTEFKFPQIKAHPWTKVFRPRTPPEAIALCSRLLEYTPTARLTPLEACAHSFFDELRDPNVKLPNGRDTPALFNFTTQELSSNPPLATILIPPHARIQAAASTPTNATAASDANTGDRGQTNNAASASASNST
Structure (SMILES),Basal_Viability ATP SNU-C1 IC50/EC50 (SNU-C1; basal),hJAK2 LANCE IC50/EC50 (hJAK2),VEGF_ADSC\ECFC Angio CD31 TubeArea IC50/EC50 [1],Basal_Viability ATP RKO IC50/EC50 (RKO; basal),Hela CellCycMod PI 2N IC50/EC50 (HeLa cells),Hela CellCycMod PI S Phase IC50/EC50 (HeLa cells),Hela CellCycMod PI 4N IC50/EC50 (HeLa cells),Hela CellCycMod PI MI IC50/EC50 (HeLa cells),Hela CellCycMod PI Cell Number IC50/EC50 (HeLa cells),Basal_Viability ATP HCT116 IC50/EC50 (HCT116),hp70S6K1 LANCE IC50/EC50 (hp70S6K1 (RPS6KB1)),VEGF_ADSC\ECFC Angio Hoechst NucArea IC50/EC50 [2],Basal_Viability ATP SW480 IC50/EC50 (SW480; basal),WntCondMedia_bCatenin C2C12 IC50/EC50 [3],GSK3b inh pretreated_Viability ATP HCT116 IC50/EC50 [4],hKDR LANCE IC50/EC50 (hKDR),Basal_Viability ATP HT-29 IC50/EC50 (HT-29; basal),WntCondMedia_Alk Phos C2C12 IC50/EC50 [5],hFLT3 LANCE IC50/EC50 (hFLT3),hGSK3b LANCE IC50/EC50 (hGSK3b),other results
O=C(CCl)c1ccc(Cl)cc1Cl [NCGC00091258-05],2.9752 µM,> 20 µM,2.4875 µM,4.299 µM,0.514 µM,> 10 µM,> 10 µM,0.541 µM,0.35 µM,6.3 µM,> 20 µM,6.1739 µM,1.249 µM,0.3728 µM,1.098 µM,> 20 µM,8.5217 µM,> 20 µM,> 20 µM,> 20 µM,Basal_Viability ATP Colo 320 IC50/EC50 (Colo320; basal): 0.5301 µM; Basal_Viability ATP DLD-1 IC50/EC50 (DLD-1; basal): 2.0651 µM
O=C1c2c(O)ccc(O)c2C(=O)c2c(NCCNCCO)ccc(NCCNCCO)c21 [NCGC00015693-09],1.718 µM,> 20 µM,0.0044 µM,1.0291 µM,> 10 µM,> 10 µM,> 10 µM,> 10 µM,0.0031 µM,1.2335 µM,> 20 µM,0.01274 µM,1.8306 µM,0.0303 µM,0.001 µM,> 20 µM,7.591 µM,1.509 µM,> 20 µM,> 20 µM,Basal_Viability ATP Colo 320 IC50/EC50 (Colo320; basal): 7.4079 µM; Basal_Viability ATP DLD-1 IC50/EC50 (DLD-1; basal): 1.6038 µM
COc1ccc2cc1Oc1ccc(cc1)C[C@H]1c3c(cc4c(c3Oc3cc5c(cc3OC)CCN(C)[C@@H]5C2)OCO4)CCN1C [NCGC00161621-03],–,> 20 µM,3.0213 µM,–,> 10 µM,> 10 µM,> 10 µM,> 10 µM,5.5384 µM,9.5422 µM,> 20 µM,> 10 µM,–,5.6301 µM,3.567 µM,> 20 µM,–,2.0494 µM,> 20 µM,> 20 µM,Basal_Viability ATP SNU-C1 IC50/EC50 (SNU-C1): 7.483 µM; Basal_Viability ATP RKO IC50/EC50 (RKO): 3.787 µM; Basal_Viability ATP SW480 IC50/EC50 (SW480): 0.308 µM; Basal_Viability ATP HT-29 IC50/EC50 (HT-29): 1.365 µM; Basal_Viability ATP Colo 320 IC50/EC50 (Colo320): 1.426 µM; Basal_Viability ATP DLD-1 IC50/EC50 (DLD-1): 12.3697 µM
Cc1ccc2nc(N)[nH]c(=O)c2c1Sc1ccncc1.Cl.Cl [NCGC00263580-01],–,> 20 µM,7.3662 µM,–,> 10 µM,> 10 µM,> 10 µM,> 10 µM,> 10 µM,3.495 µM,17.8 µM,> 10 µM,–,0.7099 µM,0.8299 µM,> 20 µM,–,0.2444 µM,> 20 µM,> 20 µM,Basal_Viability ATP SNU-C1 IC50/EC50 (SNU-C1): > 20 µM; Basal_Viability ATP RKO IC50/EC50 (RKO): 0.3429 µM; Basal_Viability ATP SW480 IC50/EC50 (SW480): 2.241 µM; Basal_Viability ATP HT-29 IC50/EC50 (HT-29): 4.747 µM; Basal_Viability ATP Colo 320 IC50/EC50 (Colo320): > 20 µM; Basal_Viability ATP DLD-1 IC50/EC50 (DLD-1): > 20 µM
